Assay results published in the NIST ThermoML archive (doi:10.1021/je200098d).
Numbers after ± are expanded uncertainties.

Conditions: Liquid, Ebulliometric method (Recirculating still)

SMILES | vapor or sublimation pressure (332.4 K) [kPa] | vapor or sublimation pressure (341.4 K) [kPa] | vapor or sublimation pressure (348.3 K) [kPa] | vapor or sublimation pressure (353.9 K) [kPa] | vapor or sublimation pressure (358.5 K) [kPa] | vapor or sublimation pressure (362.6 K) [kPa] | vapor or sublimation pressure (366.2 K) [kPa] | vapor or sublimation pressure (369.4 K) [kPa] | vapor or sublimation pressure (372.4 K) [kPa] | vapor or sublimation pressure (324.4 K) [kPa] | vapor or sublimation pressure (333.4 K) [kPa] | vapor or sublimation pressure (340 K) [kPa] | vapor or sublimation pressure (345.5 K) [kPa] | vapor or sublimation pressure (350.1 K) [kPa] | vapor or sublimation pressure (354.1 K) [kPa] | vapor or sublimation pressure (357.7 K) [kPa] | vapor or sublimation pressure (360.9 K) [kPa] | vapor or sublimation pressure (363.8 K) [kPa]
C=Cc1ccccc1 [styrene] | 5 ± 0.1 | 7.5 ± 0.1 | 10 ± 0.1 | 12.5 ± 0.1 | 15 ± 0.1 | 17.5 ± 0.1 | 20 ± 0.2 | 22.5 ± 0.2 | 25 ± 0.2 | – | – | – | – | – | – | – | – | –
CCc1ccccc1 [ethylbenzene] | – | – | – | – | – | – | – | – | – | 5 ± 0.1 | 7.5 ± 0.1 | 10 ± 0.1 | 12.5 ± 0.1 | 15 ± 0.1 | 17.5 ± 0.1 | 20 ± 0.2 | 22.5 ± 0.2 | 25 ± 0.2
